Measured values taken from US8110398B2, “Stable cell lines and methods for evaluating gastrointestinal absorption of chemicals” (Absorption Systems Group, LLC, priority 2006, dated 2012).

How the values were obtained:
C2BBE1 cells = conditions: reference values; cited from earlier work
[1] = reference values; cited from earlier work
P-gp = P-gp (Homo sapiens, UniProt P08183); test: Calcein-AM assay; conditions: for RFU/μg of protein: 30 minutes
Protocol: Calcein-AM assay. To determine activity of the P-gp protein, calcein-AM assays were conducted.
To determine the P-gp activity, cells were plated in 96-well tissue culture plates and cultured for 48. After 48 hours, cell culture media was removed and the cells were washed with phosphate buffered saline solution (PBS). After washing, cells were incubated with 1 μM calcein-AM for 30 minutes. […] After incubation with calcein-AM, the cells were rinsed with fresh control buffer and fluorescence was measured using a Fluo-star fluorescence plate reader (BMG Lab Technologies, N.C.) with excitation and emission filters set at wavelengths of 485 nm and 538 nm, respectively.
Calcein-AM efflux is not mediated by BCRP. Therefore, any increase in calcein-AM uptake by the cells can be attributed to P-gp inhibition. The cells were plated in 96-well tissue culture plates and cultured for 48 hours. After 48 hours, cell culture media was removed and the cells were washed with phosphate buffered saline solution (PBS). After washing, cells were incubated with 1 μM calcein-AM for 30 minutes. […] After incubation with calcein-AM, the cells were rinsed with fresh control buffer and fluorescence was measured using a Fluo-star fluorescence plate reader (BMG Lab Technologies, N.C.) with excitation and emission filters set at wavelengths of 485 nm and 538 nm, respectively. The assay was carried out after each clone had been passaged 9 times.

MRP2 mRNA = test: RT-PCR of MRP2 mRNA expression in transduced C2BBe1 cells; format: cell-based, human; conditions: for Percent decrease in ratio compared to control: MRP2 mRNA vs vector control; for Ratio of MRP2 band intensity to β-actin band intensity: RT-PCR, C2BBe1 cells, passages 2 to 5
Protocol: (§1) RT-PCR. Total RNA was extracted from cells according to the following protocol. Cells were harvested from culture by centrifugation, resuspended in 1 ml of TRIzol® reagent (Invitrogen, Carlsbad, Calif.), and incubated at room temperature for 5 minutes with gentle shaking. The suspension was transferred to a 1.5 ml centrifuge tube, to which 200 μl of Chloroform was added, followed by an additional 5 minute incubation period with shaking. After incubation, the suspension was centrifuged at 12,000×g for 12 minutes at 4° C. The supernatant was transferred to a fresh, sterile 1.5 ml centrifuge tube, and supplemented with 0.5 ml of 2-propanaol per 1 ml of TRIzol reagent, and incubated for 10 minutes at room temperature. The mixture was then centrifuged at 12,000×g for an additional 12 minutes at 4° C. After centrifugation, the supernatant was removed and the pellet was washed with 75% ethanol. The sample was re-centrifuged at 7500×g for 5 minutes at 4° C., followed by the removal of the supernatant. The pellet was allowed to air dry at room temperature. The pellet was resuspended in pre-warmed (55° C.) nuclease-free water, and incubated at 55° C. for 10 minutes. RNA yield and purity were quantified by absorbance at 260 nm and 280 nm.
(§2) RT-PCR mixtures were set up as 50 μl samples containing buffer, 1-2 μg of RNA, 10 μM of Forward primer, 10 μM of Reverse primer, Taq polymerase, and water. Primers to amplify human P-gylcoprotein were as follows: P-gp Forward 5′-[…]-3′ (SEQ ID NO: 9); and, P-gp Reverse 5′-[…]-3′ (SEQ ID NO: 10). Primers to amplify human MRP2 were as follows: MRP2 Forward 5′-[…]-3′ (SEQ ID NO: 11); and, MRP2 Reverse 5′-[…]-3′ (SEQ ID NO: 12). Primes to amplify human BCRP were as follows: BCRP Forward 5′-[…] 3′ (SEQ ID NO: 13); and, BCRP Reverse 5′-[…] 3′ (SEQ ID NO: 14). Human β-actin was amplified in parallel as a positive control using the following primers: β-actin Forward 5′-[…]-3′ (SEQ ID NO: 15); and, β-actin Reverse 5′-[…]-3′ (SEQ ID NO: 16).
(§3) The PCR cycles proceeded in a programmable thermocycler with the following parameters: cDNA synthesis, 1 cycle, 55° C. for 30 minutes; denaturation, 1 cycle, 94° C. for 2 minutes; PCR amplification, 40 cycles of 94° C. for 15 seconds, 62° C. for 30 seconds, 72° C. for 1 minute; and, final extension, 1 cycle, 72° C. for 5 minutes. Amplification was confirmed by electrophoresis in 2% agarose gels.
For this example, gene expression of MRP2 in C2BBe1 cells was determined by observing both the MRP2 mRNA content as well as the protein content of the cells following viral transduction. To examine mRNA content, total cellular RNA was harvested and amplified by RT-PCR using primers specific to the MRP2 gene (SEQ ID NO: 11 and 12). The RT-PCR products were then analyzed after separation by electrophoresis on a 2% agarose gel.
Vector control (VC) cells were prepared from cells transducted with lentiviruses encoding a non-interfering nucleic acid sequence (SEQ ID NO 27), as described in Example 7. Methods were described in Example 1. […]

P-gp mRNA = test: RT-PCR of P-gp mRNA expression in transduced C2BBe1 cells; format: cell-based, human; conditions: RT-PCR, shRNA/P-gp clone cells
Protocol: as §1, §2, §3
Gene expression of P-gp in knockdown cells (shRNA/P-gp clones #83, 84, 85, 86, and 87) was determined by observing P-gp mRNA content, protein content and protein functional activity. RT-PCR was used to determine the expression of the P-gp mRNA. Total cellular RNA was harvested and amplified using primers specific to P-gp mRNA. RT-PCR products were then separated by electrophoresis on a 2% agarose gel. It was determined that 4 of the 5 shRNA/P-gp clone cells contained substantially less P-gp mRNA than control C2BBe1 cells (FIG. 2, top panel). β-actin was amplified, in parallel, as a positive control, and its expression was not affected by the interfering shRNA (FIG. 2, bottom panel).

P-gp, sequence (P08183 whole entry): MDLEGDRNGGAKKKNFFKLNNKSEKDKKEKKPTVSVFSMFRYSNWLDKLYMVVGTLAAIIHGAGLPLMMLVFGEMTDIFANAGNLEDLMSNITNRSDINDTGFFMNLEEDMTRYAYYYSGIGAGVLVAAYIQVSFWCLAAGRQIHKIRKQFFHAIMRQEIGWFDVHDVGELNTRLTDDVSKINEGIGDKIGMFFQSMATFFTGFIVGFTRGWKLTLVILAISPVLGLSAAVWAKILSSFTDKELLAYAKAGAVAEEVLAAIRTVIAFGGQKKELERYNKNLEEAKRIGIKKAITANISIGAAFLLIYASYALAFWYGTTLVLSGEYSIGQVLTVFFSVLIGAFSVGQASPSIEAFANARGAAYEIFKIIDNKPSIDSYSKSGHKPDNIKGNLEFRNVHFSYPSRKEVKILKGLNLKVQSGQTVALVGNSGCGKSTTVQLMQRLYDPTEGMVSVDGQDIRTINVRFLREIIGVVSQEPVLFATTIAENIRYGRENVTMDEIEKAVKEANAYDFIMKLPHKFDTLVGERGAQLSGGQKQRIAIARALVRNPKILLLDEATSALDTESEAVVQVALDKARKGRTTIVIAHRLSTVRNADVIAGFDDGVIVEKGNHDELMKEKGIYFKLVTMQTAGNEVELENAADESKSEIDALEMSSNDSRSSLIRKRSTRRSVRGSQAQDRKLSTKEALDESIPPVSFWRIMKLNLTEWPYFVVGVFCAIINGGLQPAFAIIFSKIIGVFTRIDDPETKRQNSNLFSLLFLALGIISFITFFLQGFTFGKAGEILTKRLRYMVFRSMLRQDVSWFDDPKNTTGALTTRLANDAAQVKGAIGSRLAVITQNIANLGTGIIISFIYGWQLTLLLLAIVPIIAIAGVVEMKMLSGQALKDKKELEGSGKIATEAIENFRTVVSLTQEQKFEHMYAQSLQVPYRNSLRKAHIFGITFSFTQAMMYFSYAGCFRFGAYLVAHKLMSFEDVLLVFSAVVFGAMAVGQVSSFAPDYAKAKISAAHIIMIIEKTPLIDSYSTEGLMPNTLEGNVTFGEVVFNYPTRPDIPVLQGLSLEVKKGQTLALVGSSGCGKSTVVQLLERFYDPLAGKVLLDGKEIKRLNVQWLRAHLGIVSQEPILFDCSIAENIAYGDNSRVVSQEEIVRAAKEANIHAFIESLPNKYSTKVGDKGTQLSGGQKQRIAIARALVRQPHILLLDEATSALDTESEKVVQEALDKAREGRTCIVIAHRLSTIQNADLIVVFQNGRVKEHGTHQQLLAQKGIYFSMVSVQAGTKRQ

## 1-Deamino-8-D-arginine
C2BBE1 cells
  Papp in C2BBE1 cells: 0.13 10^−6 cm/s

## CC(=O)Oc1ccccc1C(=O)O [Acetylsalicylic acid]
[1]
  % Absorption in human: 100%
C2BBE1 cells
  Papp in C2BBE1 cells: 2.4 10^−6 cm/s

## C=CCc1ccccc1OCC(O)CNC(C)C (stereo not drawn) [Alprenolol]
[1]
  % Absorption in human: 93%
C2BBE1 cells
  Papp in C2BBE1 cells: 40.5 10^−6 cm/s

## NC(=O)CC[C@@H]1NC(=O)[C@H](Cc2ccccc2)NC(=O)[C@H](Cc2ccc(O)cc2)NC(=O)[C@@H](N)CSSC[C@@H](C(=O)N2CCC[C@H]2C(=O)N[C@@H](CCCN=C(N)N)C(=O)NCC(N)=O)NC(=O)[C@H](CC(N)=O)NC1=O [Arginine-vasopressin]
[1]
  % Absorption in human: 0%
C2BBE1 cells
  Papp in C2BBE1 cells: 0.14 10^−6 cm/s

## C[C@]12C[C@H](O)[C@H]3[C@@H](CCC4=CC(=O)CC[C@@]43C)[C@@H]1CC[C@@H]2C(=O)CO [Corticosterone]
[1]
  % Absorption in human: 100%

## C[C@@H]1C[C@H]2[C@@H]3CCC4=CC(=O)C=C[C@]4(C)[C@@]3(F)[C@@H](O)C[C@]2(C)[C@@]1(O)C(=O)CO [Dexamethasone]
[1]
  % Absorption in human: 100%

## CCOC(=O)C1=C(C)NC(C)=C(C(=O)OC)C1c1cccc(Cl)c1Cl (stereo not drawn) [Felodipine]
C2BBE1 cells
  Papp in C2BBE1 cells: 22.7 10^−6 cm/s

## OC[C@@H](O)[C@@H](O)[C@H](O)[C@H](O)CO [Mannitol]
[1]
  % Absorption in human: 16%
C2BBE1 cells
  Papp in C2BBE1 cells: 0.18 10^−6 cm/s

## COCCc1ccc(OCC(O)CNC(C)C)cc1 (stereo not drawn) [Metoptolol]
C2BBE1 cells
  Papp in C2BBE1 cells: 27 10^−6 cm/s

## O=C(O)c1cc(/N=N/c2ccc(O)c(C(=O)O)c2)ccc1O [Olsalazine]
[1]
  % Absorption in human: 2%
C2BBE1 cells
  Papp in C2BBE1 cells: 0.11 10^−6 cm/s

## CC(=O)Nc1ccc(OCC(O)CNC(C)C)cc1 (stereo not drawn) [Practolol]
C2BBE1 cells
  Papp in C2BBE1 cells: 0.9 10^−6 cm/s

## CC(C)NCC(O)COc1cccc2ccccc12 (stereo not drawn) [Propranolol]
C2BBE1 cells
  Papp in C2BBE1 cells: 41.9 10^−6 cm/s

## CC(C)(C)NCC(O)c1cc(O)cc(O)c1 (stereo not drawn) [Terbutaline]
[1]
  % Absorption in human: 73%
C2BBE1 cells
  Papp in C2BBE1 cells: 0.38 10^−6 cm/s

## C[C@]12CC[C@H]3[C@@H](CCC4=CC(=O)CC[C@@]43C)[C@@H]1CC[C@@H]2O [Testosterone]
[1]
  % Absorption in human: 100%

## CC(=O)CC(c1ccccc1)c1c(O)c2ccccc2oc1=O (stereo not drawn) [Warfarin]
C2BBE1 cells
  Papp in C2BBE1 cells: 38.3 10^−6 cm/s

## CC(=O)OCOC(=O)CN(CC(=O)OCOC(C)=O)Cc1cc2c(cc1OC(C)=O)Oc1cc(OC(C)=O)c(CN(CC(=O)OCOC(C)=O)CC(=O)OCOC(C)=O)cc1C21OC(=O)c2ccccc21 [calcein-AM]
P-gp; Vector Control cells
  Normalized Mean Fluorescence: 23.92
  Normalized Mean Fluorescence in the Presence of CSA: 62.86
P-gp; shRNA/BCRP clone #801 cells, passage 20
  Normalized Mean Fluorescence in the Presence of CSA: 72.31
P-gp; shRNA/BCRP clone #801 cells, passage 20, normalized for total protein
  Normalized Mean Fluorescence: 5.08
P-gp; shRNA/BCRP clone cell #798
  % decrease of Calcein-AM compared to vector control: 0.33%
P-gp; shRNA/BCRP clone cell #798, 1 μM calcein-AM, passaged 9 times
  RFU/μg of protein: 10.13 RFU/μg of protein
P-gp; shRNA/BCRP clone cell #799
  % decrease of Calcein-AM compared to vector control: 31.18%
P-gp; shRNA/BCRP clone cell #799, 1 μM calcein-AM, passaged 9 times
  RFU/μg of protein: 6.99 RFU/μg of protein
P-gp; shRNA/BCRP clone cell #800
  % decrease of Calcein-AM compared to vector control: 58.07%
P-gp; shRNA/BCRP clone cell #800, 1 μM calcein-AM, passaged 9 times
  RFU/μg of protein: 4.26 RFU/μg of protein
P-gp; shRNA/BCRP clone cell #801
  % decrease of Calcein-AM compared to vector control: 89.37%
P-gp; shRNA/BCRP clone cell #801, 1 μM calcein-AM, passaged 9 times
  RFU/μg of protein: 1.08 RFU/μg of protein
P-gp; shRNA/BCRP clone cell #802
  % decrease of Calcein-AM compared to vector control: 33.42%
P-gp; shRNA/BCRP clone cell #802, 1 μM calcein-AM, passaged 9 times
  RFU/μg of protein: 6.76 RFU/μg of protein
P-gp; vector control cells, 1 μM calcein-AM
  RFU/μg of protein: 10.16 RFU/μg of protein

## shRNA/MRP2 #3: interfering RNA to MRP2, SEQ ID NO: 17, lentivirally transduced into C2BBe1 cells; clone #3 (CCGGCGTGTATAAATCCAGGACCAACTCGAGTTGGTCCTGGATTTATACACGTTTTTG; listed as Homo Sapiens)
MRP2 mRNA
  Percent decrease in ratio compared to control: 15.12%
  Ratio of MRP2 band intensity to β-actin band intensity: 0.57

## shRNA/MRP2 #4: interfering RNA to MRP2, SEQ ID NO: 18, lentivirally transduced into C2BBe1 cells; clone #4 (CCGGCCTGGTGGATAGCAACAATATCTCGAGATATTGTTGCTATCCACCAGGTTTTTG; listed as Homo Sapiens)
MRP2 mRNA
  Percent decrease in ratio compared to control: 15.31%
  Ratio of MRP2 band intensity to β-actin band intensity: 0.57

## shRNA/MRP2 #5: interfering RNA to MRP2, SEQ ID NO: 19, lentivirally transduced into C2BBe1 cells; clone #5 (CCGGGCATCTGAAGTCCCTGAGAAACTCGAGTTTCTCAGGGACTTCAGATGCTTTTTG; listed as Homo Sapiens)
MRP2 mRNA
  Percent decrease in ratio compared to control: 6.04%
  Ratio of MRP2 band intensity to β-actin band intensity: 0.63

## shRNA/MRP2 #6: interfering RNA to MRP2, SEQ ID NO: 20, lentivirally transduced into C2BBe1 cells; clone #6 (CCGGGCCGGTGGTCAGATTATCATTCTCGAGAATGATAATCTGACCACCGGCTTTTTG; listed as Homo Sapiens)
MRP2 mRNA
  Percent decrease in ratio compared to control: −7.59%
  Ratio of MRP2 band intensity to β-actin band intensity: 0.72

## shRNA/MRP2 #7: interfering RNA to MRP2, SEQ ID NO: 21, lentivirally transduced into C2BBe1 cells; clone #7 (CCGGCCATAGCTTCATTCCTGAGTACTCGAGTACTCAGGAATGAAGCTATGGTTTTTG; listed as Homo Sapiens)
MRP2 mRNA
  Percent decrease in ratio compared to control: 19.53%
  Ratio of MRP2 band intensity to β-actin band intensity: 0.54

## shRNA/P-gp #83: shRNA to human P-gp, SEQ ID NO: 1, lentivirally transduced into C2BBe1 cells; clone #83 (CCGGCCGAACACATTGGAAGGAAATCTCGAGATTTCCTTCCAATGTGTTCGGTTTTTG; listed as Homo Sapiens)
P-gp mRNA
  P-gp mRNA expression relative to control C2BBe1 cells: significantly reduced
P-gp; transduced C2BBe1 cells vs Un-KD
  P-gp function by intracellular calcein fluorescence: significantly decreased
